Patent publication US20250073209A1, “COVALENT TARGETING OF RhoA FOR CANCER THERAPY” (The University of Hong Kong, priority 2023, published 2025)

What was measured:
[1] = tested on: HT29 cells with C16 Å knock-in; experiment: Wound healing assay on HT29 cells with RhoA C16A knock-in; format: cell-based, human; settings: 48 h
Procedure: For wound healing assay, HT29 cells were seeded in 90% confluency, a wound was scratched using a P-20 tip the next day. Cell debris was washed with PBS then aspirated. Then, complete DMEM medium with CL16 or Rhosin with corresponding concentration was added to the cells. Wound closure was recorded every 24 hours under light microscope with 10× objective and measurement of wound area was made by ImageJ.
HT29 cells with RhoA C16 Å knock-in were prepared by BrainVTA using the CRISPR-Cas9 technique. Briefly, HT29 cells were transfected with RhoA construct with mutated loci in CRISPR/Cas9 vector (U6-sa-sgRNA) using PEI. Cells were subsequently selected with 2 μg/mL puromycin and 800 μg/mL neomycin for 2 weeks. Monoclonal cells were then selected, propagated and subjected to Sanger sequencing to validate the homozygous C16 Å amino acid substitution ([…]) in RhoA gene.
The effects of CL16 in HT29 cells expressing RhoA WT protein and HT29 cells with RhoA C16 Å knock-in by CRISPR-Cas9 were investigated, respectively, to validate the molecular mechanism of RhoA inhibition and anti-cancer properties from CL16. […] HT29 cells expressing RhoA WT or C16 Å protein were incubated with solvent vehicle, CL16 or Rhosin in complete medium for 24 h. The cells were then washed, lysed, subjected to rhotekin pull-down and immunoblotted. […]

[2] = molecular target: Cdc42 (Homo sapiens, UniProt P60953); experiment: Gel-based competitive ABPP, second screening on Cdc42; format: binding
Cdc42, sequence (P60953 whole entry): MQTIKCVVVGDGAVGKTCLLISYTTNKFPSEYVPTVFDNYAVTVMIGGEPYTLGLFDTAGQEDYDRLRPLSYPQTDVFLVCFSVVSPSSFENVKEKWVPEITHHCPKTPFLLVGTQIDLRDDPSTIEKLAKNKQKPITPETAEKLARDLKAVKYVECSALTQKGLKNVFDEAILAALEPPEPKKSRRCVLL
Procedure: Recombinant human RhoA (0.1 μg; ab101594) was pretreated with cysteine-reactive compounds or DMSO for 1 hour at room temperature, followed by incubation with iodoacetamide-rhodamine (IA-Rh; 1 μM) for 1 hour at room temperature. The reaction was then quenched by boiling in sampling buffer. Samples were subjected to SDS-PAGE to separate proteins bands. In-gel fluorescence intensity was measured with a Chemidoc using setting for Rhodamine. Gel was subsequently stained with silver stain (Pierce) for visualization of protein content and covalent modification. Band intensity was quantified using ImageJ.
CL16 was identified for its strong and specific binding with RhoA in covalent ligand screening experiment by ABPP. ABPP is known as a powerful platform for covalent ligand screening, particularly for the identification of lead compounds targeting new hotspots for therapy. Competitive gel-based activity-based protein profiling (ABPP) experiment was performed on purified RhoA protein for screening its interactions with a library of cysteine-reactive covalent ligands with acrylamide or chloroacetamide warheads. RhoA protein for the first screening and on Rac1 and Cdc42 for the second screening to identify lead compounds with specific binding onto RhoA Cys16. […] The reaction mixture was then resolved by SDS-PAGE and in-gel fluorescence was imaged (FIG. 1A). […]

[3] = tested on: HCT116 cells; experiment: Flow cytometry cell cycle analysis; format: cell-based, human; settings: HCT116, 24 h
Procedure: HCT116 cells were seeded onto 6-well plates (500,000 cells) and cultured overnight in complete medium at 37° C. with 5% CO2. After treatment with DMSO control or CL16 at the indicated concentration for 24 h, cells were harvested by trypsin digestion, washed with PBS, and fixed in 70% cold ethanol on ice for 30 minutes. The cells were then centrifuged at 250g for 5 min and resuspended in staining buffer (PBS with 0.05% Triton X-100) containing propidium iodide (50 μg/mL) and RNase (100 μg/mL) for 30 min at 37° C. in the dark. The cells were then filtered through a 40 μm strainer and analyzed by flow cytometry. Representative FACS plots were developed to illustrate the gating strategy in studying cell cycle. The NovoCyte Advanteon BVYG analyzer was used to acquire cell events, and the data were processed using NovoExpress software.
The molecular mechanisms of anticancer effects from CL16 were investigated. […] Immunoblotting of cell cycle checkpoint proteins in HCT116 cells underwent CL16 treatment for 24 h.

[4] = tested on: CRC xenografts; experiment: H&E and immunohistochemistry on tissues of nude mice with CRC xenografts; format: in vivo, mouse
From the text: FIGS. 14A and 14B are graphs showing immunohistochemistry staining scores for the images of H&E and immunohistochemistry staining of Ki67 (FIG. 14A) and cleaved caspase-3 staining (FIG. 14B) of tumor tissues from the vehicle- or CL16-treated mice. FIGS. 14C and 14D are graphs showing immunohistochemistry staining scores for the images of H&E, Ki67 (FIG. 14C) and cleaved caspase-3 (FIG. 14D) staining of tumor tissues from the vehicle- or CL16-treated mice with HT29 xenografts.
After confirming the anticancer properties of CL16 on CRC cells and RhoA Cys16 as its primary molecular target, the anticancer effect of CL16 in vivo was studied.

SMILES: O=C(CCl)N1N=C(c2cc3ccccc3o2)CC1c1ccco1 (stereo not drawn) [CL16]
- cell migration [1]: no inhibitory effects
- binding with Cdc42 [2]: no observable binding
- G2 phase cell population [3]: significant increase in G2 phase cell population
- H&E staining of major organs ([4]; CL16-treated mice): no observable damages on major organs
- Ki67 immunohistochemistry on tumor tissues ([4]; CL16-treated vs solvent): reduction in Ki67
- cleaved caspase-3 level in tumor tissues ([4]; CL16-treated vs vehicle): elevated cleaved caspase-3 level
